{"source": "patent US8278480B2", "about": "“Salts, aqueous liquid compositions containing salts of S-(+)-abscisic acid and methods of their preparation” (Valent BioSciences Corporation, priority 2008, dated 2012)", "test_system": "tomato leaf transpiration", "assay": "Tomato leaf transpiration inhibition after foliar spray (LI-1600 porometer)", "assay_type": "in vivo, Tomato (variety: Rutgers)", "conditions": "for Transpiration rate (% of control), 1 day after treatment: day 1; for Transpiration rate (% of control), 2 days after treatment: day 2; for Transpiration rate (% of control), 3 days after treatment: day 3; for Transpiration rate (% of control), 4 days after treatment: day 4; for Transpiration rate (% of control), 7 days after treatment: day 7; for ABA dose to achieve 50% inhibition of transpiration: from linear regression of 3-day average transpiration rate on log dose", "procedure": "Preparation of plant specimens for use in the treatment studies of the EXAMPLES that follow was carried out as follows. Tomato (variety: Rutgers) seeds were sown in an 18-cell flat filled with Promix PGX (available from Premier Horticulture Inc., Quakertown Pa.) and grown for 3 weeks to allow for germination and initial growth. Plants were then transplanted into pots (18 cm in diameter and 18 cm in height), filled with Promix BX (available from Premier Horticulture Inc., Quakertown Pa.), and grown for one or two more weeks before treatment, depending on temperature and available light. Plants received daily irrigation and weekly fertilizer (1 g/L all purpose fertilizer 20-20-20, available from The Scotts Company, Marysville, Ohio).\nAll treatment solutions were made up with distilled water. The (S)-(+)-abscisic acid (95% active ingredient) is available from Lomon BioTechnology Co., Ltd. (Shichuan, China). The prior art aqueous solution composition of the ammonium salt of (S)-(+)-abscisic acid as prepared in Example 11 above was used as a positive treatment control for most of the studies.\nAll experiments were conducted using a randomized complete block experimental design. Solutions of (S)-(+)-abscisic acid and blank treatments (plain water) were applied by spray to the aerial parts of the tomato plants at the rate of 24 mL per 6 plants. Plants were then placed in a transparent chamber with humidity controlled within the range of 40 to 60% relative humidity. Leaf transpiration rates were measured at 1, 2, 3, 4 and 7 days after treatment. Measurements were conducted using a LI-1600 Steady State Porometer (LI-Cor, Lincoln, Nebr.). Each day the transpiration rate of the plants of each treatment group was normalized to a percentage of the transpiration rate of untreated plants (plants sprayed with water only) in order to control for day-to-day variability in plant status caused by changes of environmental conditions such as light intensity and temperature. Data for each plant was also averaged over a 3-day period to balance the short term and long term effect of (S)-(+)-abscisic acid on tomato leaf transpiration as well as to reduce experimental variability.\nThe regression equation of each (S)-(+)-abscisic acid salt as well as abscisic acid concentrations for 50% inhibition of transpiration were calculated. The relative potency of two ABA salts is the reciprocal of the ratio of (S)-(+)-abscisic acid concentration required for 50% transpiration inhibition for each composition.", "key": {"[1]": {"conditions": "462 ppm ChI, no (S)-(+)-abscisic acid"}, "[2]": {"conditions": "(S)-(+)-abscisic acid dose 0.3 mg, foliar spray"}, "[3]": {"conditions": "(S)-(+)-abscisic acid dose 1 mg, foliar spray"}, "[4]": {"conditions": "(S)-(+)-abscisic acid dose 3 mg, foliar spray"}, "[5]": {"conditions": "(S)-(+)-abscisic acid dose 10 mg, foliar spray"}, "[6]": {"conditions": "foliar spray, 250 ppm (S)-(+)-abscisic acid (1 mg), additives as in label"}, "[7]": {"conditions": "reciprocal of ratio of doses for 50% transpiration inhibition"}, "[8]": {"conditions": "332 ppm KI, no (S)-(+)-abscisic acid"}}, "data": [{"smiles": "C[N+](C)(C)CCO.[I-]", "note": "[ChI, choline iodide, reference compound]", "values": [{"measurement": "Transpiration rate (% of control), 7-Day Average", "setting": "[1]", "result": "100.6 % of control"}, {"measurement": "Transpiration rate (% of control), 1 day after treatment", "setting": "[1]", "result": "96.4 % of control"}, {"measurement": "Transpiration rate (% of control), 2 days after treatment", "setting": "[1]", "result": "104.2 % of control"}, {"measurement": "Transpiration rate (% of control), 3 days after treatment", "setting": "[1]", "result": "104.5 % of control"}, {"measurement": "Transpiration rate (% of control), 4 days after treatment", "setting": "[1]", "result": "98.9 % of control"}, {"measurement": "Transpiration rate (% of control), 7 days after treatment", "setting": "[1]", "result": "98.9 % of control"}]}, {"smiles": "CC1=CC(=O)CC(C)(C)[C@@]1(O)/C=C/C(C)=C\\C(=O)[O-].C[N+](C)(C)C", "note": "[Example 3, Tetramethylammonium Salt of (S)-(+)-Abscisic Acid]", "values": [{"measurement": "Transpiration rate (% of control), Average of 3 days after treatment", "setting": "[2]", "result": "79 % of control"}, {"measurement": "Transpiration rate (% of control), Average of 3 days after treatment", "setting": "[3]", "result": "65 % of control"}, {"measurement": "Transpiration rate (% of control), Average of 3 days after treatment", "setting": "[4]", "result": "52 % of control"}, {"measurement": "Transpiration rate (% of control), Average of 3 days after treatment", "setting": "[5]", "result": "38 % of control"}, {"measurement": "Transpiration rate (% of control), 7-Day Average", "setting": "[6]", "result": "73.7 % of control"}, {"measurement": "Transpiration rate (% of control), 1 day after treatment", "setting": "[6]", "result": "59.1 % of control"}, {"measurement": "Transpiration rate (% of control), 2 days after treatment", "setting": "[6]", "result": "63.6 % of control"}, {"measurement": "Transpiration rate (% of control), 3 days after treatment", "setting": "[6]", "result": "71.9 % of control"}, {"measurement": "Transpiration rate (% of control), 4 days after treatment", "setting": "[6]", "result": "78.6 % of control"}, {"measurement": "Transpiration rate (% of control), 7 days after treatment", "setting": "[6]", "result": "95.4 % of control"}, {"measurement": "ABA dose to achieve 50% inhibition of transpiration", "result": 3.59, "unit": "mg"}, {"measurement": "Relative potency compared to the trimethylamine salt composition of Comparative Example 13", "setting": "[7]", "result": 4.6, "unit": "times"}]}, {"smiles": "CC1=CC(=O)CC(C)(C)[C@@]1(O)/C=C/C(C)=C\\C(=O)[O-].[K+]", "note": "[Example 12, Potassium Salt of (S)-(+)-Abscisic Acid, reference compound]", "values": [{"measurement": "Transpiration rate (% of control), Average of 3 days after treatment", "setting": "[2]", "result": "76 % of control"}, {"measurement": "Transpiration rate (% of control), Average of 3 days after treatment", "setting": "[3]", "result": "66 % of control"}, {"measurement": "Transpiration rate (% of control), Average of 3 days after treatment", "setting": "[4]", "result": "55 % of control"}, {"measurement": "Transpiration rate (% of control), Average of 3 days after treatment", "setting": "[5]", "result": "44 % of control"}, {"measurement": "Transpiration rate (% of control), 7-Day Average", "setting": "[6]", "result": "77.0 % of control"}, {"measurement": "Transpiration rate (% of control), 1 day after treatment", "setting": "[6]", "result": "55.0 % of control"}, {"measurement": "Transpiration rate (% of control), 2 days after treatment", "setting": "[6]", "result": "64.9 % of control"}, {"measurement": "Transpiration rate (% of control), 3 days after treatment", "setting": "[6]", "result": "76.9 % of control"}, {"measurement": "Transpiration rate (% of control), 4 days after treatment", "setting": "[6]", "result": "90.9 % of control"}, {"measurement": "Transpiration rate (% of control), 7 days after treatment", "setting": "[6]", "result": "97.3 % of control"}, {"measurement": "ABA dose to achieve 50% inhibition of transpiration", "result": 5.28, "unit": "mg"}, {"measurement": "Relative potency compared to the ammonium salt composition of Comparative Example 11", "setting": "[7]", "result": 0.98, "unit": "times"}]}, {"smiles": "CC1=CC(=O)CC(C)(C)[C@@]1(O)/C=C/C(C)=C\\C(=O)O.CN(C)C", "note": "[Example 13, Trimethylamine Salt of (S)-(+)-Abscisic Acid, reference compound]", "values": [{"measurement": "Transpiration rate (% of control), Average of 3 days after treatment", "setting": "[2]", "result": "84 % of control"}, {"measurement": "Transpiration rate (% of control), Average of 3 days after treatment", "setting": "[3]", "result": "74 % of control"}, {"measurement": "Transpiration rate (% of control), Average of 3 days after treatment", "setting": "[4]", "result": "65 % of control"}, {"measurement": "Transpiration rate (% of control), Average of 3 days after treatment", "setting": "[5]", "result": "54 % of control"}, {"measurement": "Transpiration rate (% of control), 7-Day Average", "setting": "[6]", "result": "81.2 % of control"}, {"measurement": "Transpiration rate (% of control), 1 day after treatment", "setting": "[6]", "result": "65.5 % of control"}, {"measurement": "Transpiration rate (% of control), 2 days after treatment", "setting": "[6]", "result": "73.6 % of control"}, {"measurement": "Transpiration rate (% of control), 3 days after treatment", "setting": "[6]", "result": "81.7 % of control"}, {"measurement": "Transpiration rate (% of control), 4 days after treatment", "setting": "[6]", "result": "88.2 % of control"}, {"measurement": "Transpiration rate (% of control), 7 days after treatment", "setting": "[6]", "result": "97.0 % of control"}, {"measurement": "ABA dose to achieve 50% inhibition of transpiration", "result": 16.59, "unit": "mg"}]}, {"smiles": "[I-].[K+]", "note": "[KI, potassium iodide, reference compound]", "values": [{"measurement": "Transpiration rate (% of control), 4 Day Average", "setting": "332 ppm KI, no (S)-(+)-abscisic acid, 4-day average", "result": "100.7 % of control"}, {"measurement": "Transpiration rate (% of control), 1 day after treatment", "setting": "[8]", "result": "100.2 % of control"}, {"measurement": "Transpiration rate (% of control), 2 days after treatment", "setting": "[8]", "result": "100.5 % of control"}, {"measurement": "Transpiration rate (% of control), 3 days after treatment", "setting": "[8]", "result": "99.6 % of control"}, {"measurement": "Transpiration rate (% of control), 4 days after treatment", "setting": "[8]", "result": "102.6 % of control"}]}]}
